Test results reported in US11712434B2, “Compound having anti-cancer effect, and preparation method therefor and use thereof” (3D MEDICINES (BEIJING) CO., LTD., priority 2016, dated 2023).
Several values for one entry are separate records, joined by “and”; a condition that tells them apart may be missing. Equal values may be shown once. Entries after “also recorded” stand apart in the source; their conditions may differ.

Legend:
[1] = Plasma stability study of compound 8 in rat plasma; assay type: in vitro ADME, SD rat; conditions: for Residual compound 8 concentration: 37° C., Repeat 1 and 2
Procedure: The purpose of this example was to investigate the stability of incubation of compound 8 in rat plasma (compound 8 was metabolized to form intermediate compound 12 and Linifanib, intermediate compound 12 was further metabolized to form Linifanib), and the metabolites were quantified and analyzed, and the stability of the incubation system was verified by a positive drug, which provided a reference for the evaluation of the drug-forming properties of the compound.
1. Instruments and Materials • Instrument: API3000 LC/MS, ABI • Materials: Male SD rats (200-250 g), Beijing Vital River • Test sample: positive drug and its metabolites M1 and M2, compound 8 and its metabolite compound 12 and Linifanib.
2. Compound 8 Plasma Stability Study • Test animal • Type: SD rat; Quantity: 2 • Sex: male; weight: 200-250 g;
Experimental Procedure • 1). Animal blood was collected, blood samples were placed in EDTA anticoagulation tubes, centrifuged at 3000 g for 15 min at 4° C., plasma was separated, and 2 blood samples were mixed in equal volumes; • 2). Weighed a certain amount of compound 8 and dissolved in DMSO:MeOH (2:8), prepared into 200 μM mother liquor by purity conversion, and added the compound to plasma to reach a final concentration of 1 μg/mL in plasma. The organic ratio in the system was not more than 0.5%. • 3). Incubated in a 37° C. water bath and set the sampling points to 0, 0.5, 1, 2, 4, 6, 8 h. At each sampling point, 100 μL of each sample was collected and 300 μL of acetonitrile (with internal standard) was added for precipitation, centrifuged at 12,000 rpm for 5 min, and 200 μL of supernatant was taken for analysis by LC-MS/MS. • 4). Configured the standard curve to quantify compound 8, compound 12 and Linifanib

[2] = system: 26 liver cancer cell lines; experiment: Cell proliferation assay (Alamar Blue), liver cancer panel summary; assay type: cell-based; conditions: almost all liver cancer cells
Procedure: 1. Instruments and Materials • Thermo 311 CO2 incubator; Haier biosafety cabinet; Molecular Devices microplate reader; Xiangyi brand L530 desktop low speed centrifuge; Olympus IX51 inverted fluorescence microscope, DMEM, RPMI 1640, MEM, DMEM/F12 1:1 medium, Fetal bovine serum, 0.25% trypsin solution, phosphate buffer (Thermo Fisher Shanghai Co., Ltd.); sigma dimethyl sulfoxide (DMSO), resazurin; 54 commercial tumor cell lines (including 26 liver cancer cell lines). Experimental drugs: compounds 1-12 and active drug Linifanib; chemotherapeutic drug Doxorubicin (HY-15142; Shanghai Qianyuan Biomedical Technology Co., Ltd.).
2. […] The proportion and quantity of passage were determined by experimental needs. The ratio of subculture of this cell line was generally 1:2^˜1:3. • 2.2 Inhibition Effect on the Proliferation of Different Tumor Cell Lines • Cell test: 54 cell lines in logarithmic growth phase were inoculated in 96-well culture plates at 500^˜1×10^4/well (the optimal seeding density of each cell line was determined in pre-experiment), After incubating at 37° C. for 4 h in a 5% CO2 humidification incubator, added 10 μL of compounds 1-12 or Linifanib to each well, and tested 9 drug concentration gradients for each compound (diluted from the highest concentration of the test by 3.16 times). […]

Row | amount of Compound 12 and Linifanib produced by metabolism [1] | Residual compound 8 concentration ([1]; 0 h) | Residual compound 8 concentration ([1]; 0.5 h) | Residual compound 8 concentration ([1]; 1 h) | Residual compound 8 concentration ([1]; 2 h) | Residual compound 8 concentration ([1]; 4 h) | Residual compound 8 concentration ([1]; 6 h) | Residual compound 8 concentration ([1]; 8 h) | SMILES | stability in plasma ([1]; up to 8 h) | response of liver cancer cells [2]
1 | extremely small | 1200 ng/mL and 680 ng/mL | 1190 ng/mL and 1450 ng/mL | 1460 ng/mL and 1620 ng/mL | 960 ng/mL and 1040 ng/mL | 876 ng/mL and 868 ng/mL | 1110 ng/mL and 1190 ng/mL | 1200 ng/mL and 680 ng/mL | Cc1ccc(F)c(NC(=O)Nc2ccc(-c3cccc4[nH]nc(NC(=O)CCCCCCCCCCCNC(=O)C[C@H](N)C(=O)N[C@@H](CCC(=O)N[C@@H](CCC(=O)N[C@@H](CCC(=O)N[C@@H](CCC(=O)O)C(=O)O)C(=O)O)C(=O)O)C(=O)O)c34)cc2)c1 [Compound 8] | relatively stable; also recorded: very good | 
2 |  |  |  |  |  |  |  |  | Cc1ccc(F)c(NC(=O)Nc2ccc(-c3cccc4[nH]nc(NC(=O)CCCCCCCCCCCNC(=O)C[C@H](N)C(=O)O)c34)cc2)c1 [Compound 12] |  | did not respond
